Measured values reported in patent publication US20060183909A1, “Compositions derived from quinoline and quinoxaline, preparation and use thereof” (priority 2001, published 2006).
“Also recorded” adds a separate entry of the source. Where two headings read alike, the source gives them in different places.

Experiments:
[1] = target: xanthurenic acid receptor; test: Competition protocol, IC50 determination against [3H]-XA binding on synaptic membranes
Method: Binding is carried out in 50 mM Pipes buffer pH 7.4 at 0° C. […] If the compound reversibly binds to the binding site of [^3H]-XA, the two ligands will compete with each other and a binding displacement curve for [^3H]-XA can be plotted against the concentration of the competitor molecule. The incubation time is 25 minutes, followed by filtration.

[2] = test system: xanthurenic acid receptor; test: Screening: displacement of [3H]-XA binding to synaptic membranes at a fixed concentration; settings: for % inhibition of XA binding at 10 μM* / % inhibition of XA binding at 50 μM*: xanthurenic acid set arbitrarily to 100%; for % inhibition of XA binding at 50 μM*: compound at 50 μM
Method: If this concentration produces the same or greater displacement than the same concentration of non-radiolabelled XA, then an IC50 is determined. […] The incubation time is 25 min. […] The filters are placed in scintillation vials to which 5 ml of Rotiszint® (Roth) are added and the vials are counted in a Beckman LS6000sc liquid scintillation counter. Specific binding is given as the difference between total binding and nonspecific binding. The percentage inhibition of binding that the synthetic compounds produce is calculated for each compound in relation to its positive control.

[3] = test system: xanthurenic acid receptor; test: In vitro electrophysiology experiments, block of xanthurenic acid effects; assay type: cell-based
[4] = test system: xanthurenic acid receptor; test: In vivo studies of stereotypic behaviors, block of xanthurenic acid effects
[5] = two site binding model, second (higher) IC50, 200 nM [3H]-XA, synaptic membranes, read-out: IC50 (μM), second of two values
[6] = compound at 10 μM, 200 nM [3H]-XA, synaptic membranes
[7] = 200 nM [3H]-XA, synaptic membranes
[8] = single value, inhibition of binding of 200 nM [3H]-XA, synaptic membranes, read-out: IC50

Row | Compound | % inhibition of XA binding at 10 μM* [2, 6] | also measured
1 | O=C(O)c1ccc2cccc(O)c2n1 |  | IC50 ([1]; two site binding model, first (lower) IC50, 200 nM [3H]-XA, synaptic membranes, read-out: IC50 (μM), first of two values): 0.09 µM; IC50 [1, 5]: 12.3 µM
2 | O=C(O)c1cc(O)c2c(Cl)cc(Cl)c(O)c2n1 [Compound 3i, 4,8-dihydroxy-5,7-dichloro-quinoline-2-carboxylic acid] | 163% | % inhibition of XA binding at 50 μM* [2, 7]: 80%; IC50 [1, 8]: 4.6 µM
3 | O=C(O)c1cc(O)c2cc(Br)cc(O)c2n1 [Compound 3k, 4,8-dihydroxy-6-bromo-quinoline-2-carboxylic acid] |  | IC50 [1, 8]: 12 µM
4 | Nc1cccc2c(O)cc(C(=O)O)nc12 [Compound 3u, 4-hydroxy-8-amino-quinoline-2-carboxylic acid] |  | effect on xanthurenic acid effects in vitro (electrophysiology) [3]: blocks the effects of xanthurenic acid without displaying an intrinsic effect; effect on xanthurenic acid binding, in words [2]: quite potent inhibitor of xanthurenic acid binding; also recorded: potent inhibitors of XA binding to its site; % inhibition of XA binding at 50 μM* [2, 7]: 106%; effect on xanthurenic acid effects in vivo (stereotypic behaviors) [4]: blocks the effects of xanthurenic acid without displaying an intrinsic effect; IC50 [1, 8]: 14.6 µM
5 | O=C(O)c1cc(O)c2cc(-c3ccccc3)cc(O)c2n1 [Compound 19f, 4,8-dihydroxy-6-pheenyl-quinoline-2-carboxylic acid] | 163.1% | IC50 [1, 8]: 5.2 µM
6 | Cl.Nc1ccc(N2CCCCC2)c2c(O)cc(C(=O)O)nc12 [Compound 77c, 5-(piperidin-1-yl)-8-amino-4-hydroxy-quinoline-2-carboxylic acid hydrochloride] | 6% | 
7 | Nc1cc(O)cc2c(O)cc(C(=O)O)nc12 [Compound 79d, 6-hydroxy-8-amino-4-hydroxy-quinoline-2-carboxylic acid] | 60% | 
8 | Cl.O=C(O)c1cc(N2CCNCC2)c2cccc(O)c2n1 [Compound 87c, 8-hydroxy-4-(piperazin-1-yl)-quinoline-2-carboxylic acid hydrochloride] | 183% | 
9 | Cl.Nc1cccc2c(CCc3ccccc3)cc(C(=O)O)nc12 [Compound 94c, 8-amino-4-(2-phenyleth-1-yl)-quinoline-2-carboxylic acid hydrochloride] | 37% | 
10 | Cl.NCCCc1cc(C(=O)O)nc2c(N)cccc12 [Compound 95c, 8-amino-4-(3-amino-prop-1-yl)-quinoline-2-carboxylic acid hydrochloride] | 57% | 
11 | Cl.Nc1cccc2c(CCCO)cc(C(=O)O)nc12 [Compound 96c, 8-amino-4-(3-hydroxy-prop-1-yl)-quinoline-2-carboxylic acid hydrochloride] | 17% | 
12 | O=C(O)c1cc(O)c2c(C(F)(F)F)ccc(O)c2n1 [Compound 98c, 4,8-dihydroxy-5-trifluoromethyl-quinoline-2-carboxylic acid] | 94% | 
13 | Cl.O=C(O)c1cc(N2CCOCC2)c2cccc(O)c2n1 [Compound 99c, 8-hydroxy-4-(morpholin-1-yl)-quinoline-2-carboxylic acid hydrochloride] | 220% | 
14 | Cl.O=C(O)c1cc(N2CCCCC2)c2cccc(O)c2n1 [Compound 100c, 8-hydroxy-4-(piperidin-1-yl)-quinoline-2-carboxylic acid hydrochloride] | 137% | 
15 | Cl.Nc1cccc2c(N3CCCCC3)cc(C(=O)O)nc12 [Compound 101c, 8-amino-4-(piperidin-1-yl)-quinoline-2-carboxylic acid hydrochloride] | 20% | 
16 | Cl.O=C(O)c1cc(O)c2cccc(N3CCCCC3)c2n1 [Compound 102b, 4-hydroxy-8-(piperidin-1-yl)-quinoline-2-carboxylic acid hydrochloride] | 92% | 
17 | CNc1cccc2c(O)cc(C(=O)O)nc12.Cl [Compound 103b, 4-hydroxy-8-(methyl)amino-quinoline-2-carboxylic acid hydrochloride] | 3% | 

Row | Compound | % inhibition of XA binding at 10 μM* [2, 6] | also measured
18 | Cl.O=C(O)c1cc(O)c2cccc(N3CCOCC3)c2n1 [Compound 104b, 4-hydroxy-8-(morpholin-1-yl)-quinoline-2-carboxylic acid hydrochloride] | 40% | 
19 | Cl.O=C(O)c1cc(O)c2cccc(N3CCN(Cc4ccccc4)CC3)c2n1 [Compound 105b, 8-(4-benzyl-piperazin-1-yl)-4-hydroxy-quinoline-2-carboxylic acid hydrochloride] | 66% | 
20 | CN(c1ccccc1)c1cccc2c(O)cc(C(=O)O)nc12.Cl [Compound 106b, 8-[phenyl(methyl)amino]-4-hydroxy-quinoline-2-carboxylic acid hydrochloride] | 29% | 
21 | CN1CCN(c2cccc3c(O)cc(C(=O)O)nc23)CC1.Cl [Compound 107b, 8-(4-methyl-piperazin-1-yl)4-hydroxy-quinoline-2-carboxylic acid hydrochloride] | 43% | 
22 | Cl.O=C(O)c1cc(O)c2cccc(N3CCNCC3)c2n1 [Compound 108b, 4-hydroxy-8-(piperazin-1-yl)-quinoline-2-carboxylic acid hydrochloride] | 62% | 
23 | Cl.O=C(O)c1cc(O)c2cccc(Nc3ccccn3)c2n1 [Compound 109b, 4-hydroxy-8-(pyridin-2-yl-amino)-quinoline-2-carboxylic acid hydrochloride] | 112% | 
24 | CN1CCN(c2cc(C(=O)O)nc3c(O)cccc23)CC1.Cl [Compound 110c, 8-hydroxy-4-(4-methyl-piperazin-1-yl)-quinoline-2-carboxylic acid hydrochloride] | 166% | 
25 | O=C(O)c1cc(O)c2cccc(CCc3ccccc3)c2n1 [Compound 111c, 4-hydroxy-8-phenylethyl-quinoline-2-carboxylic acid] | 109% | 
26 | Nc1cc(Cl)cc2c(O)cc(C(=O)O)nc12 [Compound 117d, 6-chloro-8-amino-4-hydroxy-quinoline-2-carboxylic acid] | 97% | 
27 | Nc1cc(CCc2ccccc2)cc2c(O)cc(C(=O)O)nc12 [Compound 118c, 6-phenylethyl-8-amino-4-hydroxy-quinoline-2-carboxylic acid] | 66% | 
28 | NCCCc1cc(N)c2nc(C(=O)O)cc(O)c2c1 [Compound 121c, 6-(3′-aminopropyl)-8-amino-4-hydroxy-quinoline-2-carboxylic acid] | 120% | 
29 | Cl.Nc1cc(CCc2cccnc2)cc2c(O)cc(C(=O)O)nc12 [Compound 122c, 6-(pyridin-3-yl)ethyl-8-amino-4-hydroxy-quinoline-2-carboxylic acid hydrochloride] | 29% | 
30 | N#CCCCCCc1cc(N)c2nc(C(=O)O)cc(O)c2c1 [Compound 123c, 6-(5′-cyanopentyl)-8-amino-4-hydroxy-quinoline-2-carboxylic acid] | 100% | 
31 | CN1CCN(c2cc(N)c3nc(C(=O)O)cc(O)c3c2)CC1.Cl [Compound 124b, 6-N-(N-methylpiperazinyl)-8-amino-4-hydroxy-quinoline-2-carboxylic acid hydrochloride] | 109% | 
32 | O=C(O)c1cc(=O)c2ccccc2[nH]1 [Kynurenic acid, reference compound] | Potentiation | effect on xanthurenic acid binding, in words [2]: increase the binding of xanthurenic acid; real increase in total binding (potentiation) [2, 6]: (+70% real increase
33 | O=C(O)c1cc(O)c2cccc(O)c2n1 [Xanthurenic acid, reference compound] | 100% | % inhibition of XA binding at 50 μM* [2, 7]: 100%; IC50 ([1]; competition between [3H]-XA and non-radiolabelled XA, read-out: IC50, first site of two site binding model): 0.3 µM; IC50 [1, 5]: 57 µM
